Experimental data as given in the NIST ThermoML archive (doi:10.1016/j.jct.2010.11.007).
Several values for one entry are separate records, joined by “and”; a condition that tells them apart may be missing. Equal values may be shown once.

How the values were obtained:
[1] = 101.33 kPa, Liquid; for speed of sound: Sing-around technique in a fixed-path interferometer; for mass density: Vibrating tube method
[2] = refractive index (Na D-line) (dimensionless); settings: 101.33 kPa, Liquid, Standard Abbe refractometry
[3] = xn = mol fraction of the nth substance listed; settings: Liquid, x2 = 0; for speed of sound: Sing-around technique in a fixed-path interferometer; for mass density: Vibrating tube method
[4] = refractive index (Na D-line) (dimensionless); xn = mol fraction of the nth substance listed; settings: 101 kPa, Liquid, Standard Abbe refractometry, x2 = 0

CCCO [propan-1-ol]
Settings | mass density, [1] [kg/m3] | refractive index, [2] | speed of sound, [1] [m/s]
283.15 K | 811.52 | 1.38906 | 1257.9
298.15 K | 799.56 | 1.38288 | 1206.3
313.15 K | 787.33 | 1.3766 | 1156.8
328.15 K | 774.69 | 1.37015 | 1106.8

CCCO [propan-1-ol] + C=CC(C)(O)CCC=C(C)C
[3]
Settings | mass density, 101 kPa [kg/m3] | mass density, 20000 kPa [kg/m3] | mass density, 25000 kPa [kg/m3] | mass density, 30000 kPa [kg/m3] | mass density, 35000 kPa [kg/m3] | mass density, 40000 kPa [kg/m3] | speed of sound, 101 kPa [m/s]
283.15 K | 811.52 | 825.3 | 828.5 | 831.5 | 834.5 | 837.4 | 1258
298.15 K | 799.56 | 814.3 | 817.8 | 821 | 824.1 | 827.3 | 1206.3
313.15 K | 787.34 | 803.3 | 806.9 | 810.4 | 813.8 | 817 | 1156.8
328.15 K | 774.69 | 792.1 | 795.9 | 799.6 | 803.2 | 806.6 | 1106.8

[4]
Settings | refractive index
283.15 K | 1.38906
298.15 K | 1.38288
313.15 K | 1.3766
328.15 K | 1.37015

C=CC(C)(O)CCC=C(C)C (stereo unspecified) [3,7-dimethyl-1,6-octadien-3-ol]
Settings | mass density, [1] [kg/m3] | refractive index, [2] | speed of sound, [1] [m/s]
283.15 K | 869.39 | 1.46659 and 1.4666 | 1370.3
298.15 K | 857 | 1.45946 | 1315.1
313.15 K | 844.29 | 1.45215 | 1260.8
328.15 K | 831.31 | 1.44473 | 1207.6
